In data set [1] the test system is Liver microsome. As to the kind of experiment: Drug metabolism in human liver microsomes treated with 20 uM N-((2-isopropyl-7-methyl-1-oxoisoindolin-5-yl)methyl)isoxazole-5-carboxamide assessed compound formation in presence of NADPH using [13C]-labeled CH3OH drug stock solution at 37 degC incubated for 1 hr by liquid chromatography. The data set is classed as ADME.

Data set [2] in a line: Drug level in 0.1 N NaOH aqueous solution assessed as compound formation treated with 40 uM N-((2-isopropyl-7-methyl-1-oxoisoindolin-5-yl)methyl)isoxazole-5-carboxamide for 20 mins at pH 7.5 by LC-MS/MS analysis in presence of formaldehyde and GSH. The data set is classed as physicochemical. The following applies: buffer, pH 7.5, 20 min.
In data set [3] the test system is Liver microsome. As to the kind of experiment: Drug level in human liver microsomes assessed as compound formation treated with 20 uM N-((2-isopropyl-7-methyl-1-oxoisoindolin-5-yl)methyl)isoxazole-5-carboxamide (drug stock solution contained 1% methanol) LC-MS/MS analysis in presence of NADPH and GSH. The data set is classed as ADME.
Data set [4] relates to Liver microsome. The experiment in a line: Drug level in human liver microsomes assessed as compound formation treated with 20 uM N-((2-isopropyl-7-methyl-1-oxoisoindolin-5-yl)methyl)isoxazole-5-carboxamide (drug stock solution contained 1% acetonitrile) LC-MS/MS analysis in presence of NADPH and GSH. The class given is ADME.
Data set [5] is described as follows: Drug level in 0.1 N NaOH aqueous solution assessed as compound formation treated with 40 uM N-((2-isopropyl-7-methyl-1-oxoisoindolin-5-yl)methyl)isoxazole-5-carboxamide for 20 mins by LC-MS/MS analysis. As to conditions: buffer. The data set is classed as physicochemical.
The test system of data set [6] is Liver microsome. The experiment in a line: Retention time of the compound in human liver microsomes in presence of NADPH at 37 degC incubated for 1 hr by liquid chromatography. The data set is classed as ADME.
The subject of data set [7] is Liver microsome. The experiment in a line: Drug metabolism in human liver microsomes assessed as metabolite formation at 20 uM (drug stock solution contained 1% acetonitrile) LC-MS/MS analysis in presence of NADPH and GSH. The class given is ADME.
The test system of data set [8] is Liver microsome. As to the kind of experiment: Drug metabolism in human liver microsomes assessed ratio of sum peak areas of metabolite M1 and M2 to peak area of internal standard at 20 uM in presence of NADPH and in absence of 1 mM 1-ABT at 37 degC incubated for 1 hr by liquid chromatography. The data set is classed as ADME.
Data set [9] has as its system Liver microsome. The experiment in a line: Drug metabolism in human liver microsomes assessed as 2-amino-5-(1-(carboxymethylamino)-3-(3-cyano-5-((2-isopropyl-7-methyl-1-oxoisoindolin-5-yl)methylamino)-4,5-dioxopentan-2-ylthio)-1-oxopropan-2-ylamino)-5-oxopentanoic acid formation at 20 uM (drug stock solution contained ethanol) by LC-MS/MS analysis in presence of NADPH. The data set is classed as ADME.

Data set [10] relates to Liver microsome. As to the kind of experiment: Drug metabolism in human liver microsomes assessed metabolite formation at 20 uM in absence of NADPH at 37 degC incubated for 1 hr by liquid chromatography. The class given is ADME.
Data set [11] has as its system Liver microsome. As to the kind of experiment: Drug metabolism in human liver microsomes assessed ratio of sum peak areas of metabolite M1 and M2 to peak area of internal standard at 20 uM in presence of NADPH and 1 mM 1-ABT at 37 degC incubated for 1 hr by liquid chromatography. The data set is classed as ADME.
Data set [12] concerns Liver microsome. As to the kind of experiment: Drug metabolism in human liver microsomes assessed as (Z)-3-cyano-2-hydroxy-N-((2-isopropyl-7-methyl-1-oxoisoindolin-5-yl)methyl)acrylamide formation at 20 uM for 1 hr by LC-MS/MS analysis in presence of NADPH. The class given is ADME.
Data set [13] has as its system Liver microsome. The experiment in a line: Drug level in human liver microsomes assessed as compound formation treated with 20 uM N-((2-isopropyl-7-methyl-1-oxoisoindolin-5-yl)methyl)isoxazole-5-carboxamide for 1 hr by LC-MS/MS analysis in presence of NADPH. The class given is ADME.
The subject of data set [14] is Liver microsome. The experiment in a line: Drug level in human liver microsomes assessed as compound formation treated with 20 uM N-((2-isopropyl-7-methyl-1-oxoisoindolin-5-yl)methyl)isoxazole-5-carboxamide (drug stock solution contained 1% ethanol) LC-MS/MS analysis in presence of NADPH. The data set is classed as ADME.
Data set [15] concerns Liver microsome. The experiment in a line: Drug level in human liver microsomes assessed as compound formation treated with 20 uM N-((2-isopropyl-7-methyl-1-oxoisoindolin-5-yl)methyl)isoxazole-5-carboxamide (drug stock solution contained 1% acetonitrile) LC-MS/MS analysis in presence of NADPH. The class given is ADME.

The structures appear in SMILES notation.

As for `Cc1cc(CNC(=O)C(=O)C(C#N)CSC[C@H](NC(=O)CC[C@H](N)C(=O)O)C(=O)NCC(=O)O)cc2c1C(=O)N(C(C)C)C2` (some centres not stated), the Drug metabolism result with Liver microsome [1] is listed as “metabolite_detected”; in data set [2], “metabolite_detected”; with Liver microsome [3], “metabolite_detected”; in the data set on Liver microsome [4], “metabolite_not_detected”; in data set [5], “metabolite_detected”. Moreover, the Retention_time with Liver microsome [6] is 9.72 min.
`Cc1cc(CNC(=O)c2ccno2)cc2c1C(=O)N(C(C)C)C2`: the Drug metabolism result is on record as “metabolite_not_detected” in the data set on Liver microsome [7], “metabolite_detected” in the data set on Liver microsome [9], “metabolite_not_detected” in the data set on Liver microsome [10] and “metabolite_detected” in the data set with Liver microsome [12]. Moreover, the Ratio was found to be 1.22 with Liver microsome [8] and 0.128 with Liver microsome [11]. Besides, the Retention_time in the data set with Liver microsome [6] was determined as 17.06 min.
Turning to `Cc1cc(CNC(=O)/C(O)=C/C#N)cc2c1C(=O)N(C(C)C)C2`, the Drug metabolism result (in the data set with Liver microsome [13]; in data set [5]) was “metabolite_detected” each time. For the same compound, in the data set on Liver microsome [6], the Retention_time turned out to be 13.55 min.
`Cc1cc(CNC(=O)C(=O)CC#N)cc2c1C(=O)N(C(C)C)C2`: the Drug metabolism entry in data set [5] is listed as “metabolite_detected”. The Retention_time in the data set with Liver microsome [6] is 12.69 min.
As to `Cc1cc(CNC(=O)C(=O)C(C#N)C(C)SC[C@H](NC(=O)CC[C@H](N)C(=O)O)C(=O)NCC(=O)O)cc2c1C(=O)N(C(C)C)C2` (single isomer, unassigned; diastereomer 1), in the data set on Liver microsome [6], the Retention_time turned out to be 10.82 min.
As for `Cc1cc(CNC(=O)C(=O)C(C#N)C(C)SC[C@H](NC(=O)CC[C@H](N)C(=O)O)C(=O)NCC(=O)O)cc2c1C(=O)N(C(C)C)C2` (single isomer, unassigned; diastereomer 2), the Drug metabolism result with Liver microsome [14] is reported as “metabolite_detected”; with Liver microsome [15], “metabolite_not_detected”. Moreover, in the data set with Liver microsome [6], the Retention_time amounted to 10.08 min.
